# Measurements reported in publication PMC8010720 (bioRxiv, 2021).
# Entries after “also recorded” stand apart in the source; their conditions may differ. Where two headings read alike, the source gives them in different places.
# Columns and labels:
# SARS-CoV-2 [1] = assay: Cellular antiviral assays against SARS-CoV-2; format: cell-based
# SARS-CoV-2 [2] = settings: for effect on lung viral titer / viral propagation in mice: in vivo
# [3] = test system: SARS-CoV-2 infected A549-ACE2 cells; format: cell-based
# A549 cells = format: cell-based, human; settings: for induction of phospholipidosis: NBD-PE staining, A549 cells
# human sigma-1 receptor = human sigma-1 receptor (Homo sapiens, UniProt Q99720); format: binding
# human sigma-1 receptor, sequence (Q99720 whole entry): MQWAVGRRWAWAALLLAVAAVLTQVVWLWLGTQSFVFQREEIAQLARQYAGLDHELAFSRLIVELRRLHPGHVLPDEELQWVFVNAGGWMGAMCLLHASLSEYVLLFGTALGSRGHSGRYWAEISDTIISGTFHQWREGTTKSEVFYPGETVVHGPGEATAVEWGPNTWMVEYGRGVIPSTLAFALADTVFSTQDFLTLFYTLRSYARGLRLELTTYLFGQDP
# human sigma-2 receptor = human sigma-2 receptor (Homo sapiens, UniProt Q5BJF2); settings: radioligand displacement, fractional binding at 1 μM (Fig. 2E)
# human sigma-2 receptor, sequence (Q5BJF2 whole entry): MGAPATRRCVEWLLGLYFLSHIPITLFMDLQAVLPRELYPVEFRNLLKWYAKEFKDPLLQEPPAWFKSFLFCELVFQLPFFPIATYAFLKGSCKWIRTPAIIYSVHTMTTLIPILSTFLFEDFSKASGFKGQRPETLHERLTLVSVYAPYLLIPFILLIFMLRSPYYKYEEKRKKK
smiles,measurement,setting,value
CCCCc1oc2ccccc2c1C(=O)c1cc(I)c(OCCN(CC)CC)c(I)c1 [Amiodarone],antiviral activity against SARS-CoV-2 in cells,SARS-CoV-2 [1],mid-to high-nM activities against viral replication
same,effect on lung viral titer / viral propagation in mice,SARS-CoV-2 [2],no substantial effect on viral propagation
same,NBD-PE aggregates vs DMSO,[3],substantial increases in NBD-PE aggregates
CC[C@H]1OC(=O)[C@H](C)[C@@H](O[C@H]2C[C@@](C)(OC)[C@@H](O)[C@H](C)O2)[C@H](C)[C@@H](O[C@@H]2O[C@H](C)C[C@H](N(C)C)[C@H]2O)[C@](C)(O)C[C@@H](C)CN(C)[C@H](C)[C@@H](O)[C@]1(C)O [Azithromycin],induction of phospholipidosis,A549 cells,confirmed phospholipidosis-inducing activity
COc1cc2nc(N3CCCN(C)CC3)nc(NC3CCN(Cc4ccccc4)CC3)c2cc1OC [Bix 01294],induction of phospholipidosis,A549 cells,confirmed phospholipidosis-inducing activity
same,NBD-PE aggregates vs DMSO,[3],substantial increases in NBD-PE aggregates
same,SARS-CoV-2 spike protein signal,[3],nearly complete loss of spike protein signal
CN1CCC[C@@H]1CCO[C@](C)(c1ccccc1)c1ccc(Cl)cc1 [Clemastine],phospholipidosis (DIPL),A549 cells,> 50 % of amiodarone
"Cc1ccccc1NC(=N)Nc1ccccc1C [DTG, ditolylguanidine]",antiviral activity against SARS-CoV-2 in cells,SARS-CoV-2 [1],not antiviral; also recorded: no measurable antiviral effects
same,induction of phospholipidosis,A549 cells,did not induce phospholipidosis
CNCC[C@H](Oc1cccc2ccccc12)c1cccs1 [Duloxetine],phospholipidosis inducer class,A549 cells,strong (key: > 50% of the strong phospholipidosis inducer amiodarone; medium: 50% > DIPL > 25% of amiodarone)
CC(C)(C)c1ccc(C(=O)CCCN2CCC(OC(c3ccccc3)c3ccccc3)CC2)cc1 [Ebastine],induction of phospholipidosis,A549 cells,confirmed phospholipidosis-inducing activity
COc1cc2c(cc1OC)CN(CCc1ccc(NC(=O)c3cccc4c(=O)c5cccc(OC)c5[nH]c34)cc1)CC2 [Elacridar],induction of phospholipidosis,A549 cells,non-phospholipidosis inducing
same,effect on lung viral titer / viral propagation in mice,SARS-CoV-2 [2],modest antiviral effect
same,dose above which mice exhibited toxicities,"SARS-CoV-2 [2]; mice, i.p. once per day",higher than 3 mg/kg
Cc1c2ccncc2c(C)c2c1[nH]c1ccccc12 [Ellipticine],phospholipidosis inducer class,A549 cells; DIPL relative to amiodarone,medium (key: > 50% of the strong phospholipidosis inducer amiodarone; medium: 50% > DIPL > 25% of amiodarone)
same,induction of phospholipidosis,A549 cells,confirmed phospholipidosis-inducing activity
O=C1NCN(c2ccccc2)C12CCN(CCCC(c1ccc(F)cc1)c1ccc(F)cc1)CC2 [Fluspirilene],phospholipidosis inducer class,A549 cells; DIPL relative to amiodarone,medium (key: > 50% of the strong phospholipidosis inducer amiodarone; medium: 50% > DIPL > 25% of amiodarone)
CCN(CCO)CCCC(C)Nc1ccnc2cc(Cl)ccc12 (stereo not shown) [Hydroxychloroquine],NBD-PE aggregates vs DMSO,[3],substantial increases in NBD-PE aggregates
CC1CCN(CCCC(=O)c2ccc(F)cc2)CC1 [Melperone],antiviral activity against SARS-CoV-2 in cells,SARS-CoV-2 [1],not antiviral; also recorded: no measurable antiviral effects
same,induction of phospholipidosis,A549 cells,did not induce phospholipidosis; also recorded: non-phospholipidosis inducing
CN1CCC(CN2c3ccccc3Sc3ccccc32)C1 (stereo not shown) [Methdilazine],phospholipidosis inducer class,A549 cells; DIPL relative to amiodarone,medium (key: > 50% of the strong phospholipidosis inducer amiodarone; medium: 50% > DIPL > 25% of amiodarone)
Cc1cc2c(s1)Nc1ccccc1N=C2N1CCN(C)CC1 [Olanzapine],phospholipidosis inducer class,A549 cells; DIPL relative to amiodarone,medium (key: > 50% of the strong phospholipidosis inducer amiodarone; medium: 50% > DIPL > 25% of amiodarone)
same,induction of phospholipidosis,A549 cells,did induce phospholipidosis
COc1cccc2c1CCCC2CCCN1CCN(C2CCCCC2)CC1 (stereo not shown) [PB28],sigma-1 binding,human sigma-1 receptor,strong ligand of both sigma-1 and sigma-2
same,induction of phospholipidosis,A549 cells,both induce phospholipidosis
same,sigma-2 binding,human sigma-2 receptor,strong ligand of both sigma-1 and sigma-2
same,effect on lung viral titer / viral propagation in mice,SARS-CoV-2 [2],no substantial effect on viral propagation
same,NBD-PE aggregates vs DMSO,[3],substantial increases in NBD-PE aggregates
CN[C@H]1CC[C@@H](c2ccc(Cl)c(Cl)c2)c2ccccc21 [Sertraline],antiviral activity against SARS-CoV-2 in cells,SARS-CoV-2 [1],mid-to high-nM activities against viral replication
same,phospholipidosis (DIPL),A549 cells,> 50 % of amiodarone
same,effect on lung viral titer / viral propagation in mice,SARS-CoV-2 [2],no substantial effect on viral propagation
same,NBD-PE aggregates vs DMSO,[3],substantial increases in NBD-PE aggregates
CC/C(=C(\c1ccccc1)c1ccc(OCCN(C)C)cc1)c1ccccc1 [Tamoxifen],antiviral activity against SARS-CoV-2 in cells,SARS-CoV-2 [1],mid-to high-nM activities against viral replication
same,effect on lung viral titer / viral propagation in mice,SARS-CoV-2 [2],no substantial effect on viral propagation
CCSc1ccc2c(c1)N(CCCN1CCN(C)CC1)c1ccccc1S2 [Thiethylperazine],phospholipidosis inducer class,A549 cells; DIPL relative to amiodarone,medium (key: > 50% of the strong phospholipidosis inducer amiodarone; medium: 50% > DIPL > 25% of amiodarone)
CN(C)CCOc1ccc(/C(=C(/CCCl)c2ccccc2)c2ccccc2)cc1 [Toremifene],phospholipidosis inducer class,A549 cells; DIPL relative to amiodarone,strong (key: > 50% of the strong phospholipidosis inducer amiodarone; medium: 50% > DIPL > 25% of amiodarone)
